Measurements: paper PMC5218480 (PLoS ONE, 2017)

Test system: MV-4-11 cells
Assay: Gene expression microarray analysis (Affymetrix PrimeView) and GSEA
Format: cell-based, human
Parameters: RFU PODN (11730768_x_at) / Fold change /veh PODN (11730768_x_at) / RFU LINC00158 (11744669_a_at) / Fold change /veh LINC00158 (11744669_a_at) / RFU DUSP10 (11751237_a_at) / Fold change /veh DUSP10 (11751237_a_at) / RFU ID3 (11757404_x_at) / Fold change /veh ID3 (11757404_x_at) / RFU PLEKHG5 (11737974_s_at) / Fold change /veh PLEKHG5 (11737974_s_at) / RFU LRRC4B (11730491_at) / Fold change /veh LRRC4B (11730491_at) / RFU GIMAP4 (11747438_a_at) / Fold change /veh GIMAP4 (11747438_a_at) / RFU KRT8 (11758183_x_at) / Fold change /veh KRT8 (11758183_x_at) / RFU CNN1 (11734310_a_at) / Fold change /veh CNN1 (11734310_a_at) / RFU VPS37D (11726825_at) / Fold change /veh VPS37D (11726825_at) / RFU C10orf10 (11716522_x_at) / Fold change /veh C10orf10 (11716522_x_at) / RFU KIR2DL2 /// KIR2DL4 /// KIR2DL5A /// KIR2DL5B /// KIR2DS1 /// KIR2DS2 /// KIR2DS3 /// KIR2DS4 /// KIR3DL3 /// KIR3DL3 /// KIR3DS1 (11738374_at) / Fold change /veh KIR2DL2 /// KIR2DL4 /// KIR2DL5A /// KIR2DL5B /// KIR2DS1 /// KIR2DS2 /// KIR2DS3 /// KIR2DS4 /// KIR3DL3 /// KIR3DL3 /// KIR3DS1 (11738374_at) / RFU C1QL1 (11718748_at) / Fold change /veh C1QL1 (11718748_at) / RFU TMPRSS4 (11747572_a_at) / Fold change /veh TMPRSS4 (11747572_a_at) / RFU HAMP (11756126_x_at) / Fold change /veh HAMP (11756126_x_at) / RFU RNFT2 (11725882_a_at) / Fold change /veh RNFT2 (11725882_a_at) / RFU NR4A2 (11747474_a_at) / Fold change /veh NR4A2 (11747474_a_at) / RFU ABCC12 (11746883_a_at) / Fold change /veh ABCC12 (11746883_a_at) / RFU TMEM136 (11760407_x_at) / Fold change /veh TMEM136 (11760407_x_at) / RFU CLDN22 /// WWC2 (11732394_at) / Fold change /veh CLDN22 /// WWC2 (11732394_at) / RFU HLA-DPB1 (11760878_x_at) / Fold change /veh HLA-DPB1 (11760878_x_at) / RFU SPINT1 (11716480_a_at) / Fold change /veh SPINT1 (11716480_a_at) / RFU GAP43 (11754022_s_at) / Fold change /veh GAP43 (11754022_s_at) / RFU A4GNT (11735810_at) / Fold change /veh A4GNT (11735810_at) / RFU PRB3 (11715151_x_at) / Fold change /veh PRB3 (11715151_x_at) / RFU TUBB4B (11761932_at) / Fold change /veh TUBB4B (11761932_at) / RFU CAPN14 (11732068_a_at) / Fold change /veh CAPN14 (11732068_a_at) / RFU TMCC2 (11721928_a_at) / Fold change /veh TMCC2 (11721928_a_at) / RFU IRGQ (11745062_a_at) / Fold change /veh IRGQ (11745062_a_at) / RFU FAM174B (11720279_a_at) / Fold change /veh FAM174B (11720279_a_at) / RFU TMPRSS4 (11748680_a_at) / Fold change /veh TMPRSS4 (11748680_a_at) / RFU FAM212B (11763350_a_at) / Fold change /veh FAM212B (11763350_a_at) / RFU PLEKHG5 (11743358_a_at) / Fold change /veh PLEKHG5 (11743358_a_at) / RFU ZSCAN30 (11745921_a_at) / Fold change /veh ZSCAN30 (11745921_a_at) / RFU CMKLR1 (11741424_a_at) / Fold change /veh CMKLR1 (11741424_a_at) / RFU LOC101060620 /// MAPK8IP1 (11723275_at) / Fold change /veh LOC101060620 /// MAPK8IP1 (11723275_at) / RFU SPTSSB (11747773_x_at) / Fold change /veh SPTSSB (11747773_x_at) / RFU PRSS12 (11739890_at) / Fold change /veh PRSS12 (11739890_at) / RFU BIN1 (11741810_x_at) / Fold change /veh BIN1 (11741810_x_at) / RFU WNT11 (11732464_a_at) / Fold change /veh WNT11 (11732464_a_at) / RFU C10orf10 (11716521_a_at) / Fold change /veh C10orf10 (11716521_a_at) / RFU C5orf56 (11738089_at) / Fold change /veh C5orf56 (11738089_at) / RFU CYB561 (11721691_x_at) / Fold change /veh CYB561 (11721691_x_at) / RFU ANKRD19P (11752326_a_at) / Fold change /veh ANKRD19P (11752326_a_at) / RFU OR2T12 /// OR2T33 /// OR2T8 (11738714_s_at) / Fold change /veh OR2T12 /// OR2T33 /// OR2T8 (11738714_s_at) / RFU VCAN (11748164_a_at) / Fold change /veh VCAN (11748164_a_at) / RFU JSRP1 (11732532_at) / Fold change /veh JSRP1 (11732532_at) / RFU KRTAP10-11 (11738290_x_at) / Fold change /veh KRTAP10-11 (11738290_x_at) / RFU MYO3A (11730013_a_at) / Fold change /veh MYO3A (11730013_a_at) / RFU EBF3 (11725865_a_at) / Fold change /veh EBF3 (11725865_a_at) / RFU CAMK2N1 (11719241_x_at) / Fold change /veh CAMK2N1 (11719241_x_at) / RFU C5orf56 (11738088_a_at) / Fold change /veh C5orf56 (11738088_a_at) / RFU OLFML3 (11715873_a_at) / Fold change /veh OLFML3 (11715873_a_at) / RFU LOC100653217 /// NTM (11731650_a_at) / Fold change /veh LOC100653217 /// NTM (11731650_a_at) / RFU MAPK11 (11762145_a_at) / Fold change /veh MAPK11 (11762145_a_at) / RFU FIZ1 (11724087_x_at) / Fold change /veh FIZ1 (11724087_x_at) / RFU OASL (11726364_x_at) / Fold change /veh OASL (11726364_x_at) / RFU SOX15 (11748057_x_at) / Fold change /veh SOX15 (11748057_x_at) / RFU CD79A (11719716_a_at) / Fold change /veh CD79A (11719716_a_at) / RFU HIST1H1D (11736915_at) / Fold change /veh HIST1H1D (11736915_at) / RFU CASKIN2 (11723855_a_at) / Fold change /veh CASKIN2 (11723855_a_at) / RFU LOC730098 (11760151_x_at) / Fold change /veh LOC730098 (11760151_x_at) / RFU OR4N2 (11742367_at) / Fold change /veh OR4N2 (11742367_at) / RFU PRRT2 (11749266_a_at) / Fold change /veh PRRT2 (11749266_a_at) / RFU SNX32 (11753110_a_at) / Fold change /veh SNX32 (11753110_a_at) / RFU CDHR5 (11726645_a_at) / Fold change /veh CDHR5 (11726645_a_at) / RFU RCAN1 (11760418_a_at) / Fold change /veh RCAN1 (11760418_a_at) / RFU FAM167A (11723789_a_at) / Fold change /veh FAM167A (11723789_a_at) / RFU FAM26E (11764081_at) / Fold change /veh FAM26E (11764081_at) / RFU ISYNA1 (11749810_s_at) / Fold change /veh ISYNA1 (11749810_s_at) / RFU ACY1 (11761880_at) / Fold change /veh ACY1 (11761880_at) / RFU 11764098_at / Fold change /veh 11764098_at / RFU SAMD14 (11745864_x_at) / Fold change /veh SAMD14 (11745864_x_at) / RFU NPB (11741838_a_at) / Fold change /veh NPB (11741838_a_at) / RFU TMPRSS6 (11731388_a_at) / Fold change /veh TMPRSS6 (11731388_a_at) / RFU KRTAP10-2 (11738614_at) / Fold change /veh KRTAP10-2 (11738614_at) / RFU ARHGAP8 /// PRR5-ARHGAP8 (11727945_x_at) / Fold change /veh ARHGAP8 /// PRR5-ARHGAP8 (11727945_x_at) / RFU KRTAP5-7 /// NADSYN1 (11734609_at) / Fold change /veh KRTAP5-7 /// NADSYN1 (11734609_at) / RFU RASL12 (11751679_a_at) / Fold change /veh RASL12 (11751679_a_at) / RFU CDKN2B (11736163_a_at) / Fold change /veh CDKN2B (11736163_a_at) / RFU PRF1 (11729649_at) / Fold change /veh PRF1 (11729649_at) / RFU, ZNF638 /// ZNF638-IT1 / Fold change vs veh, ZNF638 /// ZNF638-IT1 / RFU, PANK3 / Fold change vs veh, PANK3 / RFU, SH3YL1 / Fold change vs veh, SH3YL1 / RFU, ZEB2 / Fold change vs veh, ZEB2 / RFU, NRIP1 / Fold change vs veh, NRIP1 / RFU, PTTG1IP / Fold change vs veh, PTTG1IP / RFU, CAPN2 / Fold change vs veh, CAPN2 / RFU, MED14 / Fold change vs veh, MED14 / RFU, SNORA58 / Fold change vs veh, SNORA58 / RFU, C1orf63 / Fold change vs veh, C1orf63 / RFU, LRRFIP1 / Fold change vs veh, LRRFIP1 / RFU, NDUFAF7 / Fold change vs veh, NDUFAF7 / RFU, SLC12A2 / Fold change vs veh, SLC12A2 / RFU, IBTK / Fold change vs veh, IBTK / RFU, ESF1 / Fold change vs veh, ESF1 / Fold change vs veh, TMEM50B / RFU, TAOK1 / Fold change vs veh, TAOK1 / RFU, ACBD3 / Fold change vs veh, ACBD3 / RFU, TMA16 / Fold change vs veh, TMA16 / RFU, RWDD3 / Fold change vs veh, RWDD3 / RFU, BCAT1 / Fold change vs veh, BCAT1 / RFU, EDEM3 / Fold change vs veh, EDEM3 / RFU, TMEM33 / Fold change vs veh, TMEM33 / RFU, WDR75 / Fold change vs veh, WDR75 / RFU, AHCTF1 / Fold change vs veh, AHCTF1 / RFU, TFRC / Fold change vs veh, TFRC / RFU, ZDHHC17 / Fold change vs veh, ZDHHC17 / RFU, NOM1 / Fold change vs veh, NOM1 / RFU, ARL8B / Fold change vs veh, ARL8B / RFU, ZBTB11 / Fold change vs veh, ZBTB11 / RFU, TAMM41 / Fold change vs veh, TAMM41 / RFU, KIAA1704 /// LOC100996395 / Fold change vs veh, KIAA1704 /// LOC100996395 / RFU, ING1 / Fold change vs veh, ING1 / RFU, TRMT61B / Fold change vs veh, TRMT61B / RFU, FUBP3 / Fold change vs veh, FUBP3 / RFU, TP53 / Fold change vs veh, TP53 / RFU, TNKS2 / Fold change vs veh, TNKS2 / RFU, ZFP14 / Fold change vs veh, ZFP14 / RFU, ACTR2 / Fold change vs veh, ACTR2 / RFU, PPP3R1 / Fold change vs veh, PPP3R1 / RFU, PIK3R1 / Fold change vs veh, PIK3R1 / RFU, HNRNPA1 / Fold change vs veh, HNRNPA1 / RFU, RNF170 / Fold change vs veh, RNF170 / RFU, ZNF28 / Fold change vs veh, ZNF28 / RFU, RNGTT / Fold change vs veh, RNGTT / RFU, OGT / Fold change vs veh, OGT / RFU, BRD1 / Fold change vs veh, BRD1 / RFU, MARS / Fold change vs veh, MARS / RFU, ZNF655 / Fold change vs veh, ZNF655 / RFU, FAHD1 / Fold change vs veh, FAHD1 / RFU, BDP1 / Fold change vs veh, BDP1 / RFU, LRRCC1 / Fold change vs veh, LRRCC1 / RFU, ARID1A / Fold change vs veh, ARID1A / RFU, ZNF146 / Fold change vs veh, ZNF146 / RFU, ZNF330 / Fold change vs veh, ZNF330 / RFU, GPN3 / Fold change vs veh, GPN3 / RFU, C9orf123 / Fold change vs veh, C9orf123 / RFU, N4BP2L2 / Fold change vs veh, N4BP2L2 / RFU, ARFIP1 / Fold change vs veh, ARFIP1 / RFU, FAM179B / Fold change vs veh, FAM179B / RFU, BCL10 / Fold change vs veh, BCL10 / RFU, UHRF1BP1L / Fold change vs veh, UHRF1BP1L / RFU, BET1 / Fold change vs veh, BET1 / RFU, CNOT2 / Fold change vs veh, CNOT2 / RFU, ZNF268 / Fold change vs veh, ZNF268 / Fold change vs veh, ZNF507 / RFU, DGCR2 / Fold change vs veh, DGCR2 / RFU, WDSUB1 / Fold change vs veh, WDSUB1 / Fold change vs veh, HSP90B1 /// MIR3652 / RFU, ADSS / Fold change vs veh, ADSS / RFU, GK / Fold change vs veh, GK / RFU, ZNF148 / Fold change vs veh, ZNF148 / RFU, TAF9 / Fold change vs veh, TAF9 / RFU, SLC1A5 / Fold change vs veh, SLC1A5 / RFU, SLMO2 / Fold change vs veh, SLMO2 / RFU, ABCC4 / Fold change vs veh, ABCC4 / RFU, LOC101060439 /// RAP1B / Fold change vs veh, LOC101060439 /// RAP1B / RFU, RFX7 / Fold change vs veh, RFX7 / RFU, GTPBP10 / Fold change vs veh, GTPBP10 / RFU, CNEP1R1 / Fold change vs veh, CNEP1R1 / RFU, BIVM-ERCC5 /// ERCC5 / Fold change vs veh, BIVM-ERCC5 /// ERCC5 / RFU, ILF3 / Fold change vs veh, ILF3 / RFU 11762660_at / Fold change /veh 11762660_at / RFU VCAN (11757783_s_at) / Fold change /veh VCAN (11757783_s_at) / RFU DDX43 (11728927_at) / Fold change /veh DDX43 (11728927_at) / RFU KRT8 (11758188_x_at) / Fold change /veh KRT8 (11758188_x_at) / RFU NKD1 (11759106_at) / Fold change /veh NKD1 (11759106_at) / RFU SRD5A1 (11742802_a_at) / Fold change /veh SRD5A1 (11742802_a_at) / RFU TPSAB1 /// TPSB2 (11721975_s_at) / Fold change /veh TPSAB1 /// TPSB2 (11721975_s_at) / RFU GSTM3 (11746129_a_at) / Fold change /veh GSTM3 (11746129_a_at) / RFU IL23R (11737362_x_at) / Fold change /veh IL23R (11737362_x_at) / RFU TMEM51 (11727254_a_at) / Fold change /veh TMEM51 (11727254_a_at) / RFU PIWIL2 (11732686_x_at) / Fold change /veh PIWIL2 (11732686_x_at) / RFU ORM1 (11744905_x_at) / Fold change /veh ORM1 (11744905_x_at) / RFU CCDC152 (11743942_at) / Fold change /veh CCDC152 (11743942_at) / RFU ECM1 (11717891_a_at) / Fold change /veh ECM1 (11717891_a_at) / RFU IL23R (11748794_a_at) / Fold change /veh IL23R (11748794_a_at) / RFU TNFAIP8L3 (11732012_x_at) / Fold change /veh TNFAIP8L3 (11732012_x_at) / RFU MBOAT4 (11741988_at) / Fold change /veh MBOAT4 (11741988_at) / RFU 11764193_at / Fold change /veh 11764193_at / RFU TMEM53 (11763286_at) / Fold change /veh TMEM53 (11763286_at) / RFU MAGEB2 (11727129_at) / Fold change /veh MAGEB2 (11727129_at) / RFU TMEM200A (11744735_a_at) / Fold change /veh TMEM200A (11744735_a_at) / RFU CCDC152 (11751479_a_at) / Fold change /veh CCDC152 (11751479_a_at) / RFU FAM211A (11726209_a_at) / Fold change /veh FAM211A (11726209_a_at) / RFU RGS16 (11746705_a_at) / Fold change /veh RGS16 (11746705_a_at) / RFU VCAN (11755009_s_at) / Fold change /veh VCAN (11755009_s_at) / RFU RHOB (11743442_s_at) / Fold change /veh RHOB (11743442_s_at) / RFU RGS16 (11720943_a_at) / Fold change /veh RGS16 (11720943_a_at) / RFU RGS16 (11720944_at) / Fold change /veh RGS16 (11720944_at) / RFU, VPS4B / Fold change vs veh, VPS4B / RFU, CREB1 / Fold change vs veh, CREB1 / RFU, DNAJC13 / Fold change vs veh, DNAJC13 / RFU, GNAQ / Fold change vs veh, GNAQ / RFU, CDK5R1 / Fold change vs veh, CDK5R1 / RFU, ZRANB3 / Fold change vs veh, ZRANB3 / RFU, CUL4A / Fold change vs veh, CUL4A / RFU, CCNY / Fold change vs veh, CCNY / RFU, UFL1 / Fold change vs veh, UFL1 / RFU, COG3 / Fold change vs veh, COG3 / RFU, DIAPH2 / Fold change vs veh, DIAPH2 / RFU, SKA2 / Fold change vs veh, SKA2 / RFU, AFF3 / Fold change vs veh, AFF3 / RFU, LMF1 / Fold change vs veh, LMF1 / RFU, IPO11 / Fold change vs veh, IPO11 / RFU, DFFB / Fold change vs veh, DFFB / RFU, FOXP1 / Fold change vs veh, FOXP1 / RFU, CARD8 / Fold change vs veh, CARD8 / RFU, STRN3 / Fold change vs veh, STRN3 / RFU, ADK / Fold change vs veh, ADK / RFU, RASSF2 / Fold change vs veh, RASSF2 / RFU, WIPF1 / Fold change vs veh, WIPF1 / RFU, LARP1B / Fold change vs veh, LARP1B / RFU, RASA1 / Fold change vs veh, RASA1 / RFU, RB1 / Fold change vs veh, RB1 / RFU, PPFIA1 / Fold change vs veh, PPFIA1 / RFU, MAT2A / Fold change vs veh, MAT2A / RFU, CCT5 / Fold change vs veh, CCT5 / RFU, WDR92 / Fold change vs veh, WDR92 / RFU, CUX1 / Fold change vs veh, CUX1 / RFU, TTC7A / Fold change vs veh, TTC7A / RFU, TMEM135 / Fold change vs veh, TMEM135 / RFU, DEPTOR / Fold change vs veh, DEPTOR / RFU, CPM / Fold change vs veh, CPM / RFU, DNAJB6 / Fold change vs veh, DNAJB6 / RFU, CACNA2D3 / Fold change vs veh, CACNA2D3 / RFU, DTX4 / Fold change vs veh, DTX4 / RFU, TFCP2 / Fold change vs veh, TFCP2 / RFU, GMCL1 /// GMCL1P1 / Fold change vs veh, GMCL1 /// GMCL1P1 / RFU, AEBP2 / Fold change vs veh, AEBP2 / RFU, SNHG1 /// SNORD22 /// SNORD25 /// SNORD26 /// SNORD27 /// SNORD28 /// SNORD29 /// SNORD31 / Fold change vs veh, SNHG1 /// SNORD22 /// SNORD25 /// SNORD26 /// SNORD27 /// SNORD28 /// SNORD29 /// SNORD31 / Fold change (Aza/veh), C12orf56 (ProbeSet 11735607_a_at) / Fold change (ACY-1035/veh), C12orf56 (ProbeSet 11735607_a_at) / Fold change (Aza/veh), FGFR1OP (ProbeSet 11751329_s_at) / Fold change (ACY-1035/veh), FGFR1OP (ProbeSet 11751329_s_at) / Fold change (Aza/veh), VPS36 (ProbeSet 11739960_a_at) / Fold change (ACY-1035/veh), VPS36 (ProbeSet 11739960_a_at) / RFU SYPL1 (11715823_x_at) / Fold change /veh SYPL1 (11715823_x_at) / RFU IGFBP7 (11715501_s_at) / Fold change /veh IGFBP7 (11715501_s_at) / RFU REEP3 (11722064_at) / Fold change /veh REEP3 (11722064_at) / RFU IGLL1 (11728026_x_at) / Fold change /veh IGLL1 (11728026_x_at): dose or concentration left out as unconfirmed
Settings: ProbeSet 11732306_x_at; LIST D

Nc1ncn([C@@H]2O[C@H](CO)[C@@H](O)[C@H]2O)c(=O)n1 [azacitidine]
Fold change vs veh, CREB1: 0.82
